Experimental findings from patent EP3623370A1, “NOVEL TRF1 MODULATORS AND ANALOGUES THEREOF” (Fundación del Sector Público Estatal Centro Nacional de …, priority 2018, dated 2020) are described below.

This experiment addresses T1, TRF1 (Mus musculus, UniProt P70371).
T1 construct: endogenous in cells; host or cells: CHA9.3 primary murine lung cancer cell line
T1 sequence (P70371 1-421): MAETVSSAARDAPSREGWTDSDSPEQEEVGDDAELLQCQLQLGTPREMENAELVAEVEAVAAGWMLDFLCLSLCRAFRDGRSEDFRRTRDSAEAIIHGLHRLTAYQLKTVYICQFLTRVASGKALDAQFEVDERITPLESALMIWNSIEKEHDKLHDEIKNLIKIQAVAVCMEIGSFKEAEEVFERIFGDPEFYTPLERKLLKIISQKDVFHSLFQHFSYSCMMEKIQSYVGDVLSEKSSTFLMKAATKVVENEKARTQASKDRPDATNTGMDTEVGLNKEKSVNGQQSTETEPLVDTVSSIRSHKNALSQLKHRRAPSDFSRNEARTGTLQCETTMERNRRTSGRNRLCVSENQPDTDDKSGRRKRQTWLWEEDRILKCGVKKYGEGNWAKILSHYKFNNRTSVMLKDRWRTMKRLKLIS
As to the kind of experiment: Measurement of TRF1 levels at telomere by immunofluorescence. It is filed as cell-based. The note with it: for inhibition at 10 µM / % inhibition of TRF1 levels: CHA9.3 cells (primary murine lung cancer cell line), compound at 10 µM, 24 hours, duplicates; for TRF1 inhibition activity (active / inactive, in words): qualitative SAR statement in the description; for % inhibition of TRF1 levels: 10 µM. The procedure: Assay was performed in CHA9.3, a primary murine cell line derived from a lung cancer. (Garcia-Beccaria et al., 2015). Cells were grown in DMEM (Gibco) supplemented with 10% FBS (fetal bovine serum), 1% penicillin/estreptomicen (Someglas 100U/ml) and 0.5% Amphotericin B (Gibco). Cells were incubated at 37 °C with 5% CO2. Cells were trypsinized with Trypsin-EDTA (Sigma) and washed with PBS (BioWhittaker) before counting and plating.
Cells were seeded in 10000 cells per 150 µl per well into black 96-well plates (Falcon) and incubated for 16 h at 37°C, 5% CO2. On day two, duplicates of each compound at 10 µM in DMSO were tested. The compounds were added to duplicate wells in 96-well cell plates using a FX BECKMAN robot (BeckmanCoulter) and were incubated at 37°C under CO2 atmosphere. After 24 hours, relative levels of TRF1 at telomeres were quantified by immunofluorescence. A rat monoclonal antibody against mouse TRF1 developed by the Monoclonal antibody unit at CNIO was used to detect endogenous TRF1.
First cells were fixed with 4 % formaldehyde (Sigma) in PBS (Alaos) during 13 minutes at room temperature (RT). After removal of the medium, cells were washed twice with PBS 10 minutes. Cells were permeabilized with a solution 0.2%Triton X-100 (Sigma) in PBS during 10 minutes at RT. After two more washes with PBS, cells were incubated with a solution 0.1%NaCitrate (Fluka) /0.1 %Triton X100 during 5 minutes at RT. After, two more washes with PBS cells were blocked with a solution 3% BSA (Sigma) in PBS-T, PBS with 0.05% Tween20 (Sigma), during 3 o 4 hours. Then, cells were incubated o/n at 4 °C with a dilution 1:750 of anti TRF1 antibody. After two washes of 10 minutes with PBS-T, cells were incubated with secondary antibody anti-rat 555 (Alexa Fluor) (1 :500) during 1 hour at RT: Then, 3 washes with PBS-T (0.05%) of 10 minutes and a last wash with PBS1X were performed. Nuclear staining was performed with Hoechst (Invitrogen) at de […] in PBS1X during10 minutes.
For quantification of TRF1 foci intensity, pictures of fixed cells were automatically acquired from each well by the Opera High Content Screening (HCS) system (Perkin Elmer). Forty images of random fields per well, with a 40xmagnification lens, were taken under non-saturating conditions. At least 1 × 10^3 cells were analyzed for each well. Briefly, images were segmented using the DAPI staining to generate masks matching cell nuclei from which-TRF1 foci were analyzed. Automatic analysis was performed with Acapela v2.0 software. Quantification of the inhibition of TRF1 levels at telomeres was performed with Pipeline platform.

In turn, `NC(Cc1ccccc1)c1csc(Nc2ncccn2)n1` (racemic) [Compound 1] displayed an inhibition at 10 µM of 27.3%.
As to `NC(Cc1ccccc1Br)c1csc(Nc2ncccn2)n1` (racemic) [Compound 2], testing at 10 µM gave an inhibition of 29.8%.
Still for that read-out and setting: the value for `NC(Cc1cccc(Br)c1)c1csc(Nc2ncccn2)n1` (racemic) [Compound 5] was 29.8%.
With `NC(Cc1ccc(Br)cc1)c1csc(Nc2ncccn2)n1` (racemic) [Compound 8], at 10 µM the inhibition was 32.4%.
The same measure, in the same setting: under `NC(Cc1cccc(Cl)c1)c1csc(Nc2ncccn2)n1` (racemic) [Compound 12] stands 27.9%; under `NC(Cc1ccc([N+](=O)[O-])cc1)c1csc(Nc2ncccn2)n1` (racemic) [Compound 14], 0%.
Turning to `C#CCOc1cccc(CC(N)c2csc(Nc3ncccn3)n2)c1` (racemic) [Compound 17], at 10 µM the inhibition was 31.6% and the “TRF1 inhibition activity (active / inactive, in words)” value is listed as “active”.
In the case of `C#CCOc1ccc(CC(N)c2csc(Nc3ncccn3)n2)cc1` (racemic) [Compound 20], the inhibition at 10 µM amounted to 19.4% and the “TRF1 inhibition activity (active / inactive, in words)” value is “active”.
Turning to `C#CCCCCOc1ccc(CC(N)c2csc(Nc3ncccn3)n2)cc1` (racemic) [Compound 26], at 10 µM the inhibition was 0%.
On the same count and under the same terms, the value for `C#Cc1cccc(CC(N)c2csc(Nc3ncccn3)n2)c1` (racemic) [Compound 58] was 27.1%.
On the same count and under the same terms, the value for `C#Cc1cnc(Nc2nc(C(N)Cc3ccccc3)cs2)nc1` (racemic) [Compound 62] was 11.4%; that for `C#Cc1ccc(CC(N)c2csc(Nc3ncccn3)n2)cc1` (racemic) [Compound 66] was 18.1%; that for `C#CCOc1cccc(-c2sc(Nc3ncccn3)nc2C(N)Cc2ccccc2)c1` (racemic) [Compound 87] was 17.5%.
On the same count and under the same terms, under `NC(Cc1ccccc1Br)c1csc(Nc2ncccn2)n1` (single isomer, unassigned) [Compound 3] stands 25.4%.
Regarding `NC(Cc1ccccc1Br)c1csc(Nc2ncccn2)n1` (single isomer, unassigned) [Compound 4], the “% inhibition of TRF1 levels” value is 24.91%.
For the compound `NC(Cc1cccc(Br)c1)c1csc(Nc2ncccn2)n1` (single isomer, unassigned) [Compound 6], testing at 10 µM gave an inhibition of 28.3%.
Consider `NC(Cc1cccc(Br)c1)c1csc(Nc2ncccn2)n1` (single isomer, unassigned) [Compound 7], for which the “% inhibition of TRF1 levels” value was 28.55%.
`C#CCOc1cccc(CC(N)c2csc(Nc3ncccn3)n2)c1` (single isomer, unassigned) [Compound 18]: the inhibition at 10 µM came out at 33.8% and the “TRF1 inhibition activity (active / inactive, in words)” value is listed as “active”.
The matching figures for `C#CCOc1cccc(C[C@H](N)c2csc(Nc3ncccn3)n2)c1` [Compound 19]: 27.5% and “active”.
As to `Cc1ccnc(Nc2nc([C@@H](N)Cc3ccccc3)cs2)n1` [Compound 33], the inhibition at 10 µM amounted to 30%.
The same measure, in the same setting: under `N[C@@H](Cc1ccccc1)c1csc(Nc2ncc(Br)cn2)n1` [Compound 34] stands 21%; under `N[C@@H](Cc1ccccc1)c1csc(Nc2ccccn2)n1` [Compound 35], 20.5%.
Same read-out and setting: under `Cc1cnc(Nc2nc([C@@H](N)Cc3ccccc3)cs2)nc1` [Compound 36] stands 18.4%.
As for `COc1cc(C)nc(Nc2nc([C@@H](N)Cc3ccccc3)cs2)n1` [Compound 37], 10 µM produced 9.77% inhibition and the “TRF1 inhibition activity (active / inactive, in words)” value is listed as “active”.
`Nc1ccc(CC(N)c2csc(Nc3ncccn3)n2)cc1` (centres unmarked) [Compound 52] displayed an inhibition at 10 µM of 10.5%.
In turn, `C#Cc1cccc(C[C@@H](N)c2csc(Nc3ncccn3)n2)c1` [Compound 60] yielded an inhibition at 10 µM of 24.8%.
Still for that read-out and setting: under `C#Cc1cccc(C[C@H](N)c2csc(Nc3ncccn3)n2)c1` [Compound 61] stands 30.5%; under `C#Cc1cnc(Nc2nc([C@H](N)Cc3ccccc3)cs2)nc1` [Compound 63], 11.7%; under `C#Cc1cnc(Nc2nc([C@@H](N)Cc3ccccc3)cs2)nc1` [Compound 64], 6.41%.
`C#Cc1ccc(C[C@@H](N)c2csc(Nc3ncccn3)n2)cc1` [Compound 68]: the inhibition at 10 µM came to 31.2%.
On the same count and under the same terms, under `C#Cc1ccc(C[C@H](N)c2csc(Nc3ncccn3)n2)cc1` [Compound 69] stands 7.7%; under `C#CCCC(=O)Nc1cnc(Nc2nc(C(N)Cc3ccc(F)cc3)cs2)nc1` (centres unmarked) [Compound 74], 15.5%.
The same measure, in the same setting: the value for `Nc1cccc(-c2sc(Nc3ncccn3)nc2C(N)Cc2ccccc2Br)c1` (centres unmarked) [Compound 78] was 27.8%; that for `C#Cc1cccc(-c2sc(Nc3ncccn3)nc2C(N)Cc2ccccc2)c1` (centres unmarked) [Compound 81] was 19.7%.
In turn, `CC(=O)Nc1cccc(-c2sc(Nc3ncccn3)nc2C(N)Cc2ccccc2)c1` (centres unmarked) [Compound 83] came in with an inhibition at 10 µM of 17.2%.
Regarding `COCCOc1cccc(-c2sc(Nc3ncccn3)nc2[C@@H](N)Cc2ccccc2)c1` [Compound 84], 10 µM produced 16.3% inhibition.
Take `N[C@@H](Cc1ccccc1)c1nc(Nc2ncccn2)sc1Br` [Compound 88]: the inhibition at 10 µM was found to be 29.9%.
On the same count and under the same terms, the value for `N[C@@H](Cc1ccccc1)c1nc(Nc2ncccn2)sc1-c1cccc(O)c1` [Compound 89] was 23%; that for `NC(Cc1cccc(O)c1)c1csc(Nc2ncccn2)n1` (centres unmarked) [Compound 105] was 29.5%.
In turn, `NC(Cc1ccc(O)cc1)c1csc(Nc2ncccn2)n1` (centres unmarked) [Compound 120] registered an inhibition at 10 µM of 20%.
With `C#CCOc1cccc(-c2sc(Nc3ncccn3)nc2[C@@H](N)Cc2ccccc2)c1` [Compound 122], testing at 10 µM gave an inhibition of 5.33%.
`C#CCOc1cccc(-c2sc(Nc3ncccn3)nc2[C@H](N)Cc2ccccc2)c1` [Compound 123] yielded an inhibition at 10 µM of 10.9%.

In general, inhibition refers to the share of the control response that was lost under treatment. Read a high inhibition as a strong effect.
